Experimental findings from patent publication US20200361895A1, “NOVEL SULFONAMIDE CARBOXAMIDE COMPOUNDS” (Inflazome Limited, priority 2017, published 2020) are described below.

Usually IC50 stands for the point on the concentration scale where inhibition reaches its midpoint.

In assay [1] the target is T1, NLRP3 (Homo sapiens, UniProt Q96P20). Nature of the assay: Human whole blood IL1β release assay (LPS + nigericin, AlphaLisa IL-1β; HWB IC50). The format is cell-based. More on the design: Human whole blood in Li-heparin tubes was obtained from healthy donors from a volunteer donor panel; from tissue; host or cells: human whole blood from healthy donors. Conditions: IL-1β release. The method, then:
For systemic delivery, the ability to inhibit NLRP3 when the compounds are present within the bloodstream is of great importance. For this reason, the NLRP3 inhibitory activity of a number of compounds in human whole blood was investigated in accordance with the following protocol.
Human whole blood in Li-heparin tubes was obtained from healthy donors from a volunteer donor panel. • 1. Plate out 80 μl of whole blood containing 1 μg/ml of LPS in 96-well, clear bottom cell culture plate (Corning #3585) • 2. Add 10 μl compound (8 points half-log dilution with 10 μM top dose) or vehicle (DMSO 0.1% FAC) to the appropriate wells • 3. Incubate for 3 hrs at 37° C., 5% CO2 • 4. Add 10 μl nigericin (Sigma #N7143) (10 μM FAC) to all wells • 5. Incubate for 1 hr at 37° C., 5% CO2 • 6. At the end of the incubation period, spin plates at 300×g for 5 mins to pellet cells and remove 20 μl of supernatant and add to 96-well v-bottom plates for IL-1β analysis (note: these plates containing the supernatants can be stored at −80° C. to be analysed at a later date) • 7. IL-1β was measured according to the manufacturer protocol (Perkin Elmer-AlphaLisa IL-1 Kit AL220F-5000) • 8. IC50 data is fitted to a non-linear regression equation (log inhibitor vs response-variable slope 4-parameters)
On the technique in general: Alpha assays give light when donor and acceptor beads are brought close together.

Assay [2] concerns the target T1, NLRP3. Nature of the assay: THP-1 cells pyroptosis assay (LPS + nigericin, resazurin readout; THP IC50). The format is cell-based. More on the design: Seed THP-1 cells (25,000 cells/well) containing 1.0 μg/ml LPS in 40 μl of RPMI medium; host or cells: THP-1 cells. Summed up: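 IC50 from 4-parameter fit of resazurin fluorescence (100 μM, 1-2 hrs), reflecting surviving cells after pyroptosis. LPS-primed (1 μg/ml) THP-1 cells in FBS-free RPMI got compound for 3 hrs at 37° C (top 10 μM, half-log, 8 points), then nigericin 5 μM for 1 hr.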
Background: Alamar Blue is a resazurin reagent that responds to reducing activity.

Molecules are shown by their SMILES. Counter-ions that a name gives are not always drawn.

T1 sequence (Q96P20 whole entry): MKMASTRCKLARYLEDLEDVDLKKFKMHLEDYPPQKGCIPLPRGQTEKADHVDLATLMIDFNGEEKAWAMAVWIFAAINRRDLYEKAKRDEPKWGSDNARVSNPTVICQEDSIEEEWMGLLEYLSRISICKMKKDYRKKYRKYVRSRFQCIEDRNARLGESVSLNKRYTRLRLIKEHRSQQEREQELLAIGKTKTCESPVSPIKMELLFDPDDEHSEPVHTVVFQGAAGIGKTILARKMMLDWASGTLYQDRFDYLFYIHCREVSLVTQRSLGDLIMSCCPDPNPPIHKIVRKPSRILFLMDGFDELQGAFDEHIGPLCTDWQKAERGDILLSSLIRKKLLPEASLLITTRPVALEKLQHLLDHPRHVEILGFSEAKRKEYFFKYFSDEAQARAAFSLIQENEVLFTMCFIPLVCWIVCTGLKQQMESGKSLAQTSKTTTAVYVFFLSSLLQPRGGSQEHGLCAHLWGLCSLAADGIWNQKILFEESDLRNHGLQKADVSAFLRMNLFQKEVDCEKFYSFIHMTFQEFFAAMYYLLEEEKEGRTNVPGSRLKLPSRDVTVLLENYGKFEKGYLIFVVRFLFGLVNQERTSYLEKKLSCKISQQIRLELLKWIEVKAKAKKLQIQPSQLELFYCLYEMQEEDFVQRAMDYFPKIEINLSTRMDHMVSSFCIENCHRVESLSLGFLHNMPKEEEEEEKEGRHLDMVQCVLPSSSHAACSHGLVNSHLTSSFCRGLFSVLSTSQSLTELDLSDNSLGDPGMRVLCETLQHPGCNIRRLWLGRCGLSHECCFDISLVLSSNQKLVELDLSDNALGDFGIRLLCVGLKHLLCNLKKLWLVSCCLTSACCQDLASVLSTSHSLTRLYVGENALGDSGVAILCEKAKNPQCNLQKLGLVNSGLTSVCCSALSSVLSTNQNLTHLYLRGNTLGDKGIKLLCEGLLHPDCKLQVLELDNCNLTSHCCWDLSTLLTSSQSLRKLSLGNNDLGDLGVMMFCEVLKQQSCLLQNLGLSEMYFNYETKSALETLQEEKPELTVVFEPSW

Turning to `CC(C)N1CC(S(=O)(=O)NC(=O)Nc2c(-c3ccncc3)cc(F)c3c2CCC3)C1` [Example 77, N-((7-Fluoro-5-(pyridin-4-yl)-2,3-dihydro-1H-inden-4-yl)carbamoyl)-1-isopropylazetidine-3-sulfonamide], the IC50 at NLRP3 [1] is no more than 1000 nM; on NLRP3 [2], no more than 500 nM.

With `O=C(Nc1c(-c2ccncc2)cc(F)c2c1CCC2)NS(=O)(=O)C1CN(C2CCC2)C1` [Example 81, 1-Cyclobutyl-N-((7-fluoro-5-(pyridin-4-yl)-2,3-dihydro-1H-inden-4-yl)carbamoyl)azetidine-3-sulfonamide], the IC50 at NLRP3 [1] was no more than 1000 nM; on NLRP3 [2] it was no more than 500 nM.

As to `CC(C)n1cc(S(=O)(=O)NC(=O)Nc2c(-c3ccncc3)cc(F)c3c2CCC3)ccc1=O` [Example 91, N-((7-Fluoro-5-(pyridin-4-yl)-2,3-dihydro-1H-inden-4-yl)carbamoyl)-1-isopropyl-6-oxo-1,6-dihydropyridine-3-sulfonamide], the IC50 on NLRP3 [1] is no more than 1000 nM; at NLRP3 [2], no more than 500 nM.

In the case of `COc1cc(-c2ccc3c(c2NC(=O)NS(=O)(=O)c2cnc(=O)n(C(C)C)c2)CCC3)ccn1` [Example 95, 1-Isopropyl-N-((5-(2-methoxypyridin-4-yl)-2,3-dihydro-1H-inden-4-yl)carbamoyl)-2-oxo-1,2-dihydropyrimidine-5-sulfonamide, sodium salt], the IC50 on NLRP3 [1] was no more than 1000 nM; on NLRP3 [2] it was no more than 500 nM.

As to `CN(C)c1cncc(S(=O)(=O)NC(=O)Nc2c(-c3ccncc3)cc(F)c3c2CCC3)n1` [Example 105, 6-(Dimethylamino)-N-((7-fluoro-5-(pyridin-4-yl)-2,3-dihydro-1H-inden-4-yl)carbamoyl)pyrazine-2-sulfonamide], the concentration for half-maximal inhibition (IC50) was no more than 1000 nM at NLRP3 [1] and no more than 500 nM at NLRP3 [2].

In the case of `CC(C)c1cc(F)cc(-c2ccnc(C#N)c2)c1NC(=O)NS(=O)(=O)c1cnc(N(C)C)cn1` [Example 106, N-((2-(2-Cyanopyridin-4-yl)-4-fluoro-6-isopropylphenyl)carbamoyl)-5-(dimethylamino)pyrazine-2-sulfonamide], the values for the IC50 at NLRP3 [1] and on NLRP3 [2] were no more than 5000 nM and no more than 500 nM, respectively.

With `COc1cc(-c2ccc3c(c2NC(=O)NS(=O)(=O)c2cnc(N(C)C)cn2)CCC3)ccn1` [Example 108, 5-(Dimethylamino)-N-((5-(2-methoxypyridin-4-yl)-2,3-dihydro-1H-inden-4-yl)carbamoyl)pyrazine-2-sulfonamide], the IC50 on NLRP3 [1] was no more than 5000 nM; on NLRP3 [2] it was no more than 500 nM.

On to `CN(C)c1cnc(S(=O)(=O)NC(=O)Nc2c(-c3ccncc3)cc(F)c3c2CCC3)cn1` [Example 109, 5-(Dimethylamino)-N-((7-fluoro-5-(pyridin-4-yl)-2,3-dihydro-1H-inden-4-yl)carbamoyl)pyrazine-2-sulfonamide], for which the results for the concentration for half-maximal inhibition (IC50) on NLRP3 [1] and on NLRP3 [2] were no more than 5000 nM and no more than 500 nM, respectively.

For `Cc1cc(C)nc(S(=O)(=O)NC(=O)Nc2c(-c3ccnc(C#N)c3)cc(F)cc2C(C)C)n1` [Example 114, N-((2-(2-Cyanopyridin-4-yl)-4-fluoro-6-isopropylphenyl)carbamoyl)-4,6-dimethylpyrimidine-2-sulfonamide], the half-inhibitory concentration (IC50) was no more than 5000 nM at NLRP3 [1] and no more than 500 nM on NLRP3 [2].

On to `COc1cc(-c2ccc3c(c2NC(=O)NS(=O)(=O)c2nc(C)cc(C)n2)CCC3)ccn1` [Example 116, N-((5-(2-Methoxypyridin-4-yl)-2,3-dihydro-1H-inden-4-yl)carbamoyl)-4,6-dimethylpyrimidine-2-sulfonamide], for which the IC50 on NLRP3 [1] and on NLRP3 [2] was no more than 500 nM in each case.

For `Cc1cc(C)nc(S(=O)(=O)NC(=O)Nc2c(-c3ccncc3)cc(F)c3c2CCC3)n1` [Example 117, N-((7-Fluoro-5-(pyridin-4-yl)-2,3-dihydro-1H-inden-4-yl)carbamoyl)-4,6-dimethylpyrimidine-2-sulfonamide], the 50% inhibitory concentration (IC50) on NLRP3 [1] was no more than 1000 nM; at NLRP3 [2], no more than 500 nM.

For the compound `CC(C)c1cc(F)cc(-c2ccnc(C#N)c2)c1NC(=O)NS(=O)(=O)c1cc(N(C)C)cnn1` [Example 118, N-((2-(2-Cyanopyridin-4-yl)-4-fluoro-6-isopropylphenyl)carbamoyl)-5-(dimethylamino)pyridazine-3-sulfonamide], the IC50 is no more than 1000 nM on NLRP3 [1] and no more than 500 nM at NLRP3 [2].

As to `COc1cc(-c2cc(F)cc(C(C)C)c2NC(=O)NS(=O)(=O)c2cc(N(C)C)cnn2)ccn1` [Example 119, 5-(Dimethylamino)-N-((4-fluoro-2-isopropyl-6-(2-methoxypyridin-4-yl)phenyl)carbamoyl) pyridazine-3-sulfonamide], the IC50 is no more than 5000 nM on NLRP3 [1] and no more than 500 nM on NLRP3 [2].

Consider `COc1cc(-c2ccc3c(c2NC(=O)NS(=O)(=O)c2cc(N(C)C)cnn2)CCC3)ccn1` [Example 120, 5-(Dimethylamino)-N-((5-(2-methoxypyridin-4-yl)-2,3-dihydro-1H-inden-4-yl)carbamoyl) pyridazine-3-sulfonamide], for which the IC50 is no more than 5000 nM at NLRP3 [1] and no more than 500 nM at NLRP3 [2].

With `CN(C)c1cnnc(S(=O)(=O)NC(=O)Nc2c(-c3ccncc3)cc(F)c3c2CCC3)c1` [Example 121, 5-(Dimethylamino)-N-((7-fluoro-5-(pyridin-4-yl)-2,3-dihydro-1H-inden-4-yl)carbamoyl) pyridazine-3-sulfonamide], the results for the IC50 at NLRP3 [1] and at NLRP3 [2] were no more than 1000 nM and no more than 500 nM, respectively.

As to `COc1cc(-c2ccc3c(c2NC(=O)NS(=O)(=O)N(C)CC2CCCN2C)CCC3)ccn1` (stereo not drawn) [Example 123, 3-(N-Methyl-N-((1-methylpyrrolidin-2-yl)methyl)sulfamoyl)-1-(5-(2-methoxypyridin-4-yl)-2,3-dihydro-1H-inden-4-yl)urea], the IC50 at NLRP3 [1] and on NLRP3 [2] was no more than 500 nM in each case.

Turning to `COc1cc(-c2cc(F)c3c(c2NC(=O)NS(=O)(=O)N(C)CC2CCCN2C)CCC3)ccn1` (stereo not drawn) [Example 125, 3-(N-Methyl-N-((1-methylpyrrolidin-2-yl)methyl)sulfamoyl)-1-(7-fluoro-5-(2-methoxypyridin-4-yl)-2,3-dihydro-1H-inden-4-yl)urea], the IC50 on NLRP3 [1] and at NLRP3 [2] was no more than 500 nM in each case.

Take `COc1cc(-c2cc(F)c3c(c2NC(=O)NS(=O)(=O)N2C[C@H]4C[C@@H]2CN4C)CCC3)ccn1` [Example 126, (1R,4R)—N-((7-Fluoro-5-(2-methoxypyridin-4-yl)-2,3-dihydro-1H-inden-4-yl)carbamoyl)-5-methyl-2,5-diazabicyclo[2.2.1]heptane-2-sulfonamide]: the IC50 on NLRP3 [1] and at NLRP3 [2] was no more than 500 nM each time.

As to `O=C(Nc1c(-c2ccncc2)cc(F)c2c1CCC2)NS(=O)(=O)CCc1ccccc1` [Example 138, N-((7-Fluoro-5-(pyridin-4-yl)-2,3-dihydro-1H-inden-4-yl)carbamoyl)-2-phenylethanesulfonamide], the IC50 on NLRP3 [1] is no more than 10000 nM; on NLRP3 [2] it was no more than 1000 nM.

For `COc1cc(-c2ccc3c(c2NC(=O)NS(=O)(=O)c2cnn(C4CC4)c2)CCC3)ccn1` [Example 145, 1-Cyclopropyl-N-((5-(2-methoxypyridin-4-yl)-2,3-dihydro-1H-inden-4-yl)carbamoyl)-1H-pyrazole-4-sulfonamide], the IC50 at NLRP3 [1] was no more than 1000 nM; on NLRP3 [2] it was no more than 500 nM.

Take `CCN(CC)CCCS(=O)(=O)NC(=O)Nc1c(-c2ccncc2)cc(F)c2c1CCC2` [Example 149, 3-(Diethylamino)-N-((7-fluoro-5-(pyridin-4-yl)-2,3-dihydro-1H-inden-4-yl)carbamoyl)propane-1-sulfonamide]: the IC50 at NLRP3 [1] and on NLRP3 [2] was no more than 500 nM each time.

With `CCN(CCCS(=O)(=O)NC(=O)Nc1c(-c2ccncc2)cc(F)c2c1CCC2)Cc1ccccc1` [Example 153, 3-(Benzyl(ethyl)amino)-N-((7-fluoro-5-(pyridin-4-yl)-2,3-dihydro-1H-inden-4-yl)carbamoyl)propane-1-sulfonamide], the IC50 on NLRP3 [1] is no more than 5000 nM; on NLRP3 [2] it was no more than 500 nM.

Consider `COc1cc(-c2cc(F)cc(C(C)C)c2NC(=O)NS(=O)(=O)CC2CCN(C)C2)ccn1` (stereo not drawn) [Example 163, N-((4-Fluoro-2-isopropyl-6-(2-methoxypyridin-4-yl)phenyl)carbamoyl)-1-(1-methylpyrrolidin-3-yl) methanesulfonamide], for which the IC50 at NLRP3 [1] and at NLRP3 [2] was no more than 500 nM throughout.

For the compound `COc1cc(-c2ccc3c(c2NC(=O)NS(=O)(=O)CC2CCN(C)C2)CCC3)ccn1` (stereo not drawn) [Example 164, N-((5-(2-Methoxypyridin-4-yl)-2,3-dihydro-1H-inden-4-yl)carbamoyl)-1-(1-methylpyrrolidin-3-yl) methanesulfonamide], the IC50 on NLRP3 [1] and at NLRP3 [2] was no more than 500 nM each time.
